The target of test [1] is T1, Neutrophil collagenase (Homo sapiens, UniProt P22894). As to the kind of experiment: Inhibition of MMP8 (unknown origin) using (7-methoxycoumarin-4-yl) acetyl pro-Leu-Gly-Leu-[3-(2,4-dinitrophenyl)-L-2,3-diamino-propionyl]-Ala-Arg-NH2 as substrate preincubated for 30 mins followed by substrate addition by microplate reader analysis.
Target sequence in this assay (P22894 whole entry): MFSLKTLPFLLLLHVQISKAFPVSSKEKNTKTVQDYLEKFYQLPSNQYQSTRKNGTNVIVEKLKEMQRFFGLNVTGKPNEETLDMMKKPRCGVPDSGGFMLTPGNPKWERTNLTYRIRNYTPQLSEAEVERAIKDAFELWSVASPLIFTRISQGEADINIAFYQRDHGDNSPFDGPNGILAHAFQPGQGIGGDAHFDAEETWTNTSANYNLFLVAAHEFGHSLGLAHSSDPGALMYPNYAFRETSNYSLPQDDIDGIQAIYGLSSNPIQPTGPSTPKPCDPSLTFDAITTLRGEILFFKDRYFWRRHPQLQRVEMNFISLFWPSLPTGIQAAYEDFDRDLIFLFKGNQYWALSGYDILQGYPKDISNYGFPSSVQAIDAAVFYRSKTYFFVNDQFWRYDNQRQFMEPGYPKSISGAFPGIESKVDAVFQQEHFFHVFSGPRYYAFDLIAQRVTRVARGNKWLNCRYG
For test [2], the target named is T2, Collagenase 3 (Homo sapiens, UniProt P45452). Nature of the test: Inhibition of MMP13 (unknown origin) using (7-methoxycoumarin-4-yl) acetyl pro-Leu-Gly-Leu-[3-(2,4-dinitrophenyl)-L-2,3-diamino-propionyl]-Ala-Arg-NH2 as substrate preincubated for 30 mins followed by substrate addition by microplate reader analysis.
The target in test [3] is T3, Matrix metalloproteinase-9 (Homo sapiens, UniProt P14780). Nature of the test: Inhibition of human MMP9 using (7-methoxycoumarin-4-yl) acetyl pro-Leu-Gly-Leu-[3-(2,4-dinitrophenyl)-L-2,3-diamino-propionyl]-Ala-Arg-NH2 as substrate preincubated for 30 mins followed by substrate addition by microplate reader analysis.
T3 sequence (P14780 whole entry): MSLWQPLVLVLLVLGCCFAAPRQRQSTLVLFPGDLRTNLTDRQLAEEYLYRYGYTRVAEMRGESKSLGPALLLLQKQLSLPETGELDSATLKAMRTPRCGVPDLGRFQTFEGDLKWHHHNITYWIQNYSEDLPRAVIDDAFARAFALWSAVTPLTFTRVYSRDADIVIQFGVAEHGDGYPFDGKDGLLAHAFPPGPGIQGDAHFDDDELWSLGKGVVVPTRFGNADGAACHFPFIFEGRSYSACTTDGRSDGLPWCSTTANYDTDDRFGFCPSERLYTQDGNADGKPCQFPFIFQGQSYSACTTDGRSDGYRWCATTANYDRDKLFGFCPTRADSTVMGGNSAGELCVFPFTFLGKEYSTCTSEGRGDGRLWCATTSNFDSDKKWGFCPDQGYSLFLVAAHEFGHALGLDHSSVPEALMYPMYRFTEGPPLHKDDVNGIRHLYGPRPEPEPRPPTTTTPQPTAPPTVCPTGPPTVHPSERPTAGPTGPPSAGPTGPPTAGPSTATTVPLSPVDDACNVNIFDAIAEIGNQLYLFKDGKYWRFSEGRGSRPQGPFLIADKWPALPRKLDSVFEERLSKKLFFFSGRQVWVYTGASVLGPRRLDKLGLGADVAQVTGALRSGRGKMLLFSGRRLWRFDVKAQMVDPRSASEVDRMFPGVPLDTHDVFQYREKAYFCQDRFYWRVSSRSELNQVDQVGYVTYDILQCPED
The target in test [4] is T4, 72 kDa type IV collagenase (Homo sapiens, UniProt P08253). As to the kind of experiment: Inhibition of human MMP2 using (7-methoxycoumarin-4-yl) acetyl pro-Leu-Gly-Leu-[3-(2,4-dinitrophenyl)-L-2,3-diamino-propionyl]-Ala-Arg-NH2 as substrate preincubated for 30 mins followed by substrate addition by microplate reader analysis.
Target sequence in this assay (P08253 whole entry): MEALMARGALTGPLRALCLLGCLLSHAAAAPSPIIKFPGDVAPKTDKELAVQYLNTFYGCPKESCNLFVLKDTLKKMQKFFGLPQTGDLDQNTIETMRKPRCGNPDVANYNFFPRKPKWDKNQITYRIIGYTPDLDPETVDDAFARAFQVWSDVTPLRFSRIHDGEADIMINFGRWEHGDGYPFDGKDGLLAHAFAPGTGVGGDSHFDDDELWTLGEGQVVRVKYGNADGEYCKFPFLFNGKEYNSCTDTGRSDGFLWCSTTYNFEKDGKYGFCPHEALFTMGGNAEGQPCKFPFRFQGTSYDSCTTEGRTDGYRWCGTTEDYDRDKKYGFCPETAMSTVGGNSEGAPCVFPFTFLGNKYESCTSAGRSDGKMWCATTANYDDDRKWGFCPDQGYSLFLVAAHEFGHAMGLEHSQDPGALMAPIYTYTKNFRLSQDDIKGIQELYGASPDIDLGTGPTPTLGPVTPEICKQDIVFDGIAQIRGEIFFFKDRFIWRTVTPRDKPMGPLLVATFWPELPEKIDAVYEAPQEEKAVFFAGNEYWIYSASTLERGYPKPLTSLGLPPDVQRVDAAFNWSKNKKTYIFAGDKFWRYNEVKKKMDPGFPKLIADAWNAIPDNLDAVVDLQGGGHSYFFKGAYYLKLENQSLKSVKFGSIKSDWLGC
Test [5] concerns the target T1, Neutrophil collagenase. As to the kind of experiment: Inhibition of MMP8 (unknown origin) up to 100 uM using (7-methoxycoumarin-4-yl) acetyl pro-Leu-Gly-Leu-[3-(2,4-dinitrophenyl)-L-2,3-diamino-propionyl]-Ala-Arg-NH2 as substrate preincubated for 30 mins followed by substrate addition by microplate reader analysis.
Target sequence in this assay (P22894 101-467 limits assumed): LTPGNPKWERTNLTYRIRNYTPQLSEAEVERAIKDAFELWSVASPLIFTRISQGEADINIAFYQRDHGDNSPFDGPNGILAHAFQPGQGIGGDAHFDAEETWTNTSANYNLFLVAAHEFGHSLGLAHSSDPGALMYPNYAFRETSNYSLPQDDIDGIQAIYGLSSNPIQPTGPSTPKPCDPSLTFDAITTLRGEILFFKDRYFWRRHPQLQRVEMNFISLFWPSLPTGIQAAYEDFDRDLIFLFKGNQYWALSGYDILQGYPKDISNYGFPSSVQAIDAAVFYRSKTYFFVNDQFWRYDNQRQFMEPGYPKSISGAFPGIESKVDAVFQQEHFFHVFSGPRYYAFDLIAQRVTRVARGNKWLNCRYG
Test [6] addresses T4, 72 kDa type IV collagenase. As to the kind of experiment: Inhibition of human MMP2 up to 100 uM using (7-methoxycoumarin-4-yl) acetyl pro-Leu-Gly-Leu-[3-(2,4-dinitrophenyl)-L-2,3-diamino-propionyl]-Ala-Arg-NH2 as substrate preincubated for 30 mins followed by substrate addition by microplate reader analysis.
Target sequence in this assay (P08253 110-660 limits assumed): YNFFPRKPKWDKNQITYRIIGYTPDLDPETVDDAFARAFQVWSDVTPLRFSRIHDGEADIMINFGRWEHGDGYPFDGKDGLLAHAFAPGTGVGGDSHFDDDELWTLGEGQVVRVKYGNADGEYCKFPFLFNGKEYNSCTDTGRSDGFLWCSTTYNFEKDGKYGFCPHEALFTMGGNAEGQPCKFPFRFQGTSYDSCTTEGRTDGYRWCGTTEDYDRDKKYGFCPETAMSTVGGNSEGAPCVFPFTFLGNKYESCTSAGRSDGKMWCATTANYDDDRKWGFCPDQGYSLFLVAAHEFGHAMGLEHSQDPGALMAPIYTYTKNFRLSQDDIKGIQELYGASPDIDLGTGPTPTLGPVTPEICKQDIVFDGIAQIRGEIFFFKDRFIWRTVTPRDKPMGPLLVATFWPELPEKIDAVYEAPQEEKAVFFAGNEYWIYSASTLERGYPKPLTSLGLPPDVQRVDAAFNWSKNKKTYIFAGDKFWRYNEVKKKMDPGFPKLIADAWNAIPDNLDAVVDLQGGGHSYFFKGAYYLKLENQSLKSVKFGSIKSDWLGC
Test [7] deals with T2, Collagenase 3. Nature of the test: Inhibition of MMP13 (unknown origin) up to 100 uM using (7-methoxycoumarin-4-yl) acetyl pro-Leu-Gly-Leu-[3-(2,4-dinitrophenyl)-L-2,3-diamino-propionyl]-Ala-Arg-NH2 as substrate preincubated for 30 mins followed by substrate addition by microplate reader analysis.
Test [8] addresses T3, Matrix metalloproteinase-9. As to the kind of experiment: Inhibition of human MMP9 up to 100 uM using (7-methoxycoumarin-4-yl) acetyl pro-Leu-Gly-Leu-[3-(2,4-dinitrophenyl)-L-2,3-diamino-propionyl]-Ala-Arg-NH2 as substrate preincubated for 30 mins followed by substrate addition by microplate reader analysis.

Activity calls are given as the source filed them. No cut-off for these calls is given here.

The text below walks through data of ChEMBL document CHEMBL3751799, “Fluorinated matrix metalloproteinases inhibitors--Phosphonate based potential probes for positron emission tomography” (Bioorg Med Chem, 2016).

`COCc1ccc(-c2ccc(S(=O)(=O)NC(C(C)C)P(=O)(O)O)cc2)s1` (stereo not given): the IC50 in test [1], in test [2], in test [3] and in test [4] was above 100000 nM in each case.

Turning to `Cc1ccc(-c2ccc(S(=O)(=O)NC(C(C)C)P(=O)(O)O)cc2)s1` (stereo not given), the IC50 in test [1], in test [2], in test [3] and in test [4] was above 100000 nM throughout.

Consider `COc1ccc(S(=O)(=O)N(Cc2ccccc2)C(CC(C)C)P(=O)(O)O)cc1` (stereo not given), for which the inhibition entry in test [5], in test [6], in test [7] and in test [8] was “inactive” in each case.

For the molecule `COc1ccc(S(=O)(=O)N(Cc2cccnc2)C(C(C)C)P(=O)(O)O)cc1` (stereo not given), the inhibition result in test [5], in test [6], in test [7] and in test [8] was “inactive” in each case.

Take `COc1ccc(S(=O)(=O)N(Cc2cccnc2)C(CC(C)C)P(=O)(O)O)cc1` (stereo not given): the inhibition entry in test [5], in test [6], in test [7] and in test [8] was “inactive” each time.

Consider `CC(C)C(NS(=O)(=O)c1ccc(-c2ccc(F)nc2)cc1)P(=O)(O)O` (stereo not given), for which the concentration for half-maximal inhibition (IC50) in test [1] was above 100000 nM; in test [2], 1030 nM; in test [3], 393 nM; in test [4], 628 nM.

`COc1ccc(-c2ccc(S(=O)(=O)N[C@@H](CCCCCF)P(=O)(O)O)cc2)cc1`: the half-inhibitory concentration (IC50) in test [2] is 5.37 nM; in test [3] it was 19 nM; in test [4], 6.5 nM.

Turning to `COc1ccc(S(=O)(=O)N(Cc2ccccc2)C(C(C)C)P(=O)(O)O)cc1` (stereo not given), the inhibition result in test [5], in test [6], in test [7] and in test [8] was “inactive” each time.

In the case of `COc1ccc(-c2ccc(S(=O)(=O)NC(C(C)C)P(=O)(O)O)cc2)cc1` (racemic), the figures for the IC50 in test [2], in test [3] and in test [4] were 2.17 nM, 8.85 nM and 9.25 nM, respectively.

`CC(C)C(NS(=O)(=O)c1ccc(-c2ccc(OCCF)cc2)cc1)P(=O)(O)O` (stereo not given): the values for the IC50 in test [2], in test [3] and in test [4] were 2.41 nM, 18.5 nM and 11.7 nM, respectively.

In the case of `COc1ccc(-c2ccc(S(=O)(=O)N[C@H](CCCCCF)P(=O)(O)O)cc2)cc1`, the IC50 is 42.2 nM in test [1], 93.8 nM in test [2], above 100000 nM in test [3] and 791 nM in test [4].

As for `CC(C)C(N(Cc1ccccc1)S(=O)(=O)c1ccc(-c2ccc(OCCF)cc2)cc1)P(=O)(O)O` (stereo not given), the IC50 came out at 83.1 nM in test [1], 73.1 nM in test [2], 96.4 nM in test [3] and 56.3 nM in test [4].

The term IC50 denotes the concentration that inhibits the measured activity by half. A lower IC50 goes with greater potency.
